ChEMBL document CHEMBL3769303, “Discovery of membrane active benzimidazole quinolones-based topoisomerase inhibitors as potential DNA-binding antimicrobial agents” (Eur J Med Chem, 2016)
Converted amounts (≈) assume the structure as drawn. The source made the active and inactive calls. The rule behind the calls is not given here.

Tests used:
Shigella dysenteriae = experiment: Antibacterial activity against Shigella dysenteriae by micro broth dilution method; format: functional
Staphylococcus aureus [1] = experiment: Antibacterial activity against methicillin-resistant Staphylococcus aureus N315 by micro broth dilution method; format: functional
Staphylococcus aureus [2] = experiment: Antibacterial activity against Staphylococcus aureus ATCC 25923 by micro broth dilution method; format: functional
Micrococcus luteus [3] = experiment: Antibacterial activity against Micrococcus luteus ATCC 4698 by micro broth dilution method; format: functional; details: NCTC 2665
Bacillus spizizenii = experiment: Antibacterial activity against Bacillus subtilis ATCC 6633 by micro broth dilution method; format: functional
Escherichia coli [4] = experiment: Antibacterial activity against Escherichia coli DH52 by micro broth dilution method; format: functional
Escherichia coli [5] = experiment: Antibacterial activity against Escherichia coli JM109 by micro broth dilution method; format: functional
Pseudomonas aeruginosa = experiment: Antibacterial activity against Pseudomonas aeruginosa ATCC 27853 by micro broth dilution method; format: functional
[6] = Antibacterial activity against Bacillus proteus ATCC 13315 by micro broth dilution method; format: functional
Salmonella enterica [7] = experiment: Antibacterial activity against Salmonella enterica ATCC 14028 by micro broth dilution method; format: functional
Micrococcus luteus [8] = experiment: Potency index, ratio of chloromycin MIC to compound MIC for Micrococcus luteus ATCC 4698; format: functional, NCTC 2665
Bacillus [9] = experiment: Potency index, ratio of chloromycin MIC to compound MIC for Bacillus proteus ATCC 13315; format: functional
Salmonella enterica [10] = experiment: Potency index, ratio of chloromycin MIC to compound MIC for Salmonella enterica ATCC 14028; format: functional
Micrococcus luteus [11] = experiment: Potency index, ratio of ciprofloxacin MIC to compound MIC for Micrococcus luteus ATCC 4698; format: functional, NCTC 2665
Micrococcus luteus [12] = experiment: Potency index, ratio of clinafloxacin MIC to compound MIC for Micrococcus luteus ATCC 4698; format: functional, NCTC 2665
Bacillus [13] = experiment: Potency index, ratio of clinafloxacin MIC to compound MIC for Bacillus proteus ATCC 13315; format: functional
Salmonella enterica [14] = experiment: Potency index, ratio of clinafloxacin MIC to compound MIC for Salmonella enterica ATCC 14028; format: functional
[15] = Antifungal activity against Candida mycoderma ATCC 9888 after 24 hrs by micro broth dilution method; format: functional; details: Candida vini
Staphylococcus aureus [16] = experiment: Bactericidal activity against methicillin-resistant Staphylococcus aureus N315 assessed as reduction in log10 CFU count at 6 times MIC after 24 hrs by time kill assay; format: functional
Staphylococcus aureus [17] = experiment: Antibiofilm activity against methicillin-resistant Staphylococcus aureus N315 after 24 hrs by crystal violet staining-based plate reader assay; format: functional, organism-based; details: N315, 24 h
Escherichia coli [18] = experiment: Antibiofilm activity against Escherichia coli DH52 after 24 hrs by crystal violet staining-based plate reader assay; format: functional, organism-based; details: DH52, 24 h
Staphylococcus aureus [19] = experiment: Antibiofilm activity against methicillin-resistant Staphylococcus aureus N315 assessed as log10 CFU count at 0.125 ug/ml after 24 hrs (reference value: 13.6 log10 CFU/ml); format: functional
Staphylococcus aureus [20] = experiment: Antibiofilm activity against methicillin-resistant Staphylococcus aureus N315 assessed as log10 CFU count at 0.25 ug/ml after 24 hrs (reference value: 13.6 log10 CFU/ml); format: functional
Staphylococcus aureus [21] = experiment: Antibiofilm activity against methicillin-resistant Staphylococcus aureus N315 assessed as log10 CFU count at 1 ug/ml after 24 hrs (reference value: 13.6 log10 CFU/ml); format: functional
Staphylococcus aureus [22] = experiment: Antibiofilm activity against methicillin-resistant Staphylococcus aureus N315 assessed as log10 CFU count at 2 ug/ml after 24 hrs (reference value: 13.6 log10 CFU/ml); format: functional
Staphylococcus aureus [23] = experiment: Antibiofilm activity against methicillin-resistant Staphylococcus aureus N315 assessed as reduction in log10 CFU count after 24 hrs; format: functional, organism-based; details: N315, 24 h
Escherichia coli [24] = experiment: Antibiofilm activity against Escherichia coli DH52 assessed as log10 CFU count at 0.5 ug/ml after 24 hrs (reference value: 16.2 log10CFU/ml); format: functional
Escherichia coli [25] = experiment: Antibiofilm activity against Escherichia coli DH52 assessed as log10 CFU count at 0.25 ug/ml after 24 hrs (reference value: 16.2 log10CFU/ml); format: functional
Escherichia coli [26] = experiment: Antibiofilm activity against Escherichia coli DH52 assessed as log10 CFU count at 2 ug/ml after 24 hrs (reference value: 16.2 log10CFU/ml); format: functional
Escherichia coli [27] = experiment: Antibiofilm activity against Escherichia coli DH52 assessed as log10 CFU count at 4 ug/ml after 24 hrs (reference value: 16.2 log10CFU/ml); format: functional
Escherichia coli [28] = experiment: Antibiofilm activity against Escherichia coli DH52 assessed as reduction in log10 CFU count after 48 hrs; format: functional, organism-based; details: DH52, 48 h
Staphylococcus aureus [29] = experiment: Antibacterial activity against methicillin-resistant Staphylococcus aureus N315 assessed as membrane permeabilization at 12 times MIC measured for 15 mins by propidium iodide staining-based method; format: functional, organism-based
Escherichia coli [30] = experiment: Antibacterial activity against Escherichia coli DH52 assessed as membrane permeabilization at 12 times MIC measured for 15 mins by propidium iodide staining-based method; format: functional, organism-based
Staphylococcus aureus [31] = experiment: Antibacterial activity against methicillin-resistant Staphylococcus aureus N315 measured after 12 passages; format: functional
Escherichia coli [32] = experiment: Inhibition of Escherichia coli topoisomerase 4 assessed as DNA relaxation using PUC19T-DNA at 10 uM after 2 hrs by ehtidium bromide staining-based agarose gel electrophoresis
HEK293 = experiment: Cytotoxicity against HEK293 cells after 24 hrs by CCK8 assay; format: cell-based; details: Homo sapiens, HEK293, 24 h
Calf thymus DNA = experiment: Binding affinity to calf thymus DNA by UV-visible spectroscopy; format: nucleic-acid assay; details: Bos taurus
Cyberlindnera jadinii = experiment: Antifungal activity against Candida utilis ATCC 9950 after 24 hrs by micro broth dilution method; format: functional; details: Williopsis jadinii, ATCC 9950, 24 h
Aspergillus flavus = experiment: Antifungal activity against Aspergillus flavus ATCC 204304 after 24 hrs by micro broth dilution method; format: functional; details: ATCC 204304, 24 h
Saccharomyces cerevisiae = experiment: Antifungal activity against Saccharomyces cerevisiae ATCC 9763 after 24 hrs by micro broth dilution method; format: functional; details: ATCC 9763, 24 h
Candida albicans = experiment: Antifungal activity against Candida albicans ATCC 10231 after 24 hrs by micro broth dilution method; format: functional; details: ATCC 10231, 24 h
Micrococcus luteus [33] = experiment: Potency index, ratio of norfloxacin MIC to compound MIC for Micrococcus luteus ATCC 4698; format: functional, NCTC 2665
Salmonella enterica [34] = experiment: Potency index, ratio of norfloxacin MIC to compound MIC for Salmonella enterica ATCC 14028; format: functional

Q: With `O=C(O)c1cn(C2CC2)c2cc(N3CCN(Cc4nc5ccccc5n4Cc4ccc(Cl)cc4Cl)CC3)c(F)cc2c1=O` as the compound, how does the MIC (Shigella dysenteriae) read?
A: 1 µg/mL (≈ 1.61 µM)

Q: What about the MIC (Staphylococcus aureus [1]) of the same compound?
A: 0.125 µg/mL (≈ 0.201 µM)

Q: And the MIC (Staphylococcus aureus [2])?
A: 8 µg/mL (≈ 12.9 µM)

Q: And the MIC (Micrococcus luteus [3])?
A: 0.0625 µg/mL (≈ 0.101 µM)

Q: And the MIC (Bacillus spizizenii)?
A: 4 µg/mL (≈ 6.45 µM)

Q: What about the MIC (Escherichia coli [4]) of the same compound?
A: 0.125 µg/mL (≈ 0.201 µM)

Q: What about the MIC (Escherichia coli [5]) of the same compound?
A: 1 µg/mL (≈ 1.61 µM)

Q: And the MIC (Pseudomonas aeruginosa)?
A: 0.5 µg/mL (≈ 0.806 µM)

Q: And the MIC [6]?
A: 0.0312 µg/mL (≈ 0.0503 µM)

Q: What about the MIC (Salmonella enterica [7]) of the same compound?
A: 0.0312 µg/mL (≈ 0.0503 µM)

Q: And the Ratio (Micrococcus luteus [8])?
A: 128

Q: And the Ratio (Bacillus [9])?
A: 1025

Q: What about the Ratio (Salmonella enterica [10]) of the same compound?
A: 1025

Q: And the Ratio (Micrococcus luteus [11])?
A: 32

Q: What about the Ratio (Micrococcus luteus [12]) of the same compound?
A: 8

Q: And the Ratio (Bacillus [13])?
A: 16

Q: And the Ratio (Salmonella enterica [14])?
A: 8

Q: What about the MIC80 [15] of the same compound?
A: 0.25 µg/mL (≈ 0.403 µM)

Q: What about the Activity (Staphylococcus aureus [16]) of the same compound?
A: 3 log10CFU/ml

Q: What about the IC50 (Staphylococcus aureus [17]) of the same compound?
A: 0.125 µg/mL (≈ 0.201 µM)

Q: And the IC50 (Escherichia coli [18])?
A: 0.25 µg/mL (≈ 0.403 µM)

Q: And the Activity (Staphylococcus aureus [19])?
A: 10.5 log10CFU/ml

Q: What about the Activity (Staphylococcus aureus [20]) of the same compound?
A: 9.6 log10CFU/ml

Q: And the Activity (Staphylococcus aureus [21])?
A: 5 log10CFU/ml

Q: And the Activity (Staphylococcus aureus [22])?
A: 0.1 log10CFU/ml

Q: And the EC50 (Staphylococcus aureus [23])?
A: 0.76 µg/mL (≈ 1.22 µM)

Q: And the Activity (Escherichia coli [24])?
A: 10.1 log10CFU/ml

Q: What about the Activity (Escherichia coli [25]) of the same compound?
A: 12.2 log10CFU/ml

Q: And the Activity (Escherichia coli [26])?
A: 7.2 log10CFU/ml

Q: What about the Activity (Escherichia coli [27]) of the same compound?
A: 3.6 log10CFU/ml

Q: And the EC50 (Escherichia coli [28])?
A: 1.5 µg/mL (≈ 2.42 µM)

Q: What about the Activity (Staphylococcus aureus [29]) of the same compound?
A: Active

Q: And the Activity (Escherichia coli [30])?
A: Active

Q: What about the MIC (Staphylococcus aureus [31]) of the same compound?
A: 0.125 µg/mL (≈ 0.201 µM)

Q: What about the inhibition (Escherichia coli [32]) of the same compound?
A: Active

Q: And the IC50 (HEK293)?
A: 106 µg/mL (≈ 171 µM)

Q: And the K (Calf thymus DNA)?
A: 4.3 ×10⁴ L/mol

Q: And the MIC80 (Cyberlindnera jadinii)?
A: 0.125 µg/mL (≈ 0.201 µM)

Q: And the MIC80 (Aspergillus flavus)?
A: 0.5 µg/mL (≈ 0.806 µM)

Q: And the MIC80 (Saccharomyces cerevisiae)?
A: 1 µg/mL (≈ 1.61 µM)

Q: What about the MIC80 (Candida albicans) of the same compound?
A: 0.5 µg/mL (≈ 0.806 µM)

Q: And the Ratio (Micrococcus luteus [33])?
A: 32

Q: What about the Ratio (Salmonella enterica [34]) of the same compound?
A: 32

Q: Which MIC (Shigella dysenteriae) does the source give for `O=C(O)c1cn(C2CC2)c2cc(N3CCN(c4nc5ccccc5[nH]4)CC3)c(F)cc2c1=O` here?
A: 0.5 µg/mL (≈ 1.12 µM)

Q: And the MIC (Staphylococcus aureus [1])?
A: 0.5 µg/mL (≈ 1.12 µM)

Q: And the MIC (Staphylococcus aureus [2])?
A: 1 µg/mL (≈ 2.23 µM)

Q: And the MIC (Micrococcus luteus [3])?
A: 1 µg/mL (≈ 2.23 µM)

Q: What about the MIC (Bacillus spizizenii) of the same compound?
A: 2 µg/mL (≈ 4.47 µM)

Q: And the MIC (Escherichia coli [4])?
A: 1 µg/mL (≈ 2.23 µM)

Q: And the MIC (Escherichia coli [5])?
A: 2 µg/mL (≈ 4.47 µM)

Q: What about the MIC (Pseudomonas aeruginosa) of the same compound?
A: 0.5 µg/mL (≈ 1.12 µM)

Q: And the MIC [6]?
A: 2 µg/mL (≈ 4.47 µM)

Q: And the MIC (Salmonella enterica [7])?
A: 1 µg/mL (≈ 2.23 µM)

Q: What about the MIC80 [15] of the same compound?
A: 16 µg/mL (≈ 35.8 µM)

Q: And the MIC80 (Cyberlindnera jadinii)?
A: 4 µg/mL (≈ 8.94 µM)

Q: What about the MIC80 (Aspergillus flavus) of the same compound?
A: 1 µg/mL (≈ 2.23 µM)

Q: And the MIC80 (Saccharomyces cerevisiae)?
A: 1 µg/mL (≈ 2.23 µM)

Q: And the MIC80 (Candida albicans)?
A: 2 µg/mL (≈ 4.47 µM)

Q: Which results are given for `CCn1cc(C(=O)O)c(=O)c2cc(F)c(N3CCN(Cc4nc5ccc(F)cc5[nH]4)CC3)cc21`?
A: MIC (Shigella dysenteriae): 8 µg/mL (≈ 17.1 µM); MIC (Staphylococcus aureus [1]): 16 µg/mL (≈ 34.2 µM); MIC (Staphylococcus aureus [2]): 16 µg/mL (≈ 34.2 µM); MIC (Micrococcus luteus [3]): 0.5 µg/mL (≈ 1.07 µM); MIC (Bacillus spizizenii): 8 µg/mL (≈ 17.1 µM); MIC (Escherichia coli [4]): 16 µg/mL (≈ 34.2 µM); MIC (Escherichia coli [5]): 32 µg/mL (≈ 68.5 µM); MIC (Pseudomonas aeruginosa): 4 µg/mL (≈ 8.56 µM); MIC [6]: 2 µg/mL (≈ 4.28 µM); MIC (Salmonella enterica [7]): 8 µg/mL (≈ 17.1 µM); MIC80 [15]: 1 µg/mL (≈ 2.14 µM); MIC80 (Cyberlindnera jadinii): 0.25 µg/mL (≈ 0.535 µM); MIC80 (Aspergillus flavus): 0.5 µg/mL (≈ 1.07 µM); MIC80 (Saccharomyces cerevisiae): 0.5 µg/mL (≈ 1.07 µM); MIC80 (Candida albicans): 2 µg/mL (≈ 4.28 µM)
